# According to EP1114151B1, “G PROTEIN-COUPLED RECEPTOR ANTAGONISTS” (Hopital Sainte-Justine, priority 1998, dated 2011):
# Test system: FP receptor
# Experiment: porcine eyecup model of ex vivo vasomotricity assay, PGF2α-induced constriction of retinal microvessels
# Source text: In order to see if the peptides could inhibit FP function using an ex vivo model, we chose porcine eyecup model, an ex vivo assay of vascular constriction in porcine retinas which we previously described and validated (Li et al., 1996 J. Pharmacol. Expt. Therapeut. 278: 370-377; Li et al., 1997 Am. J. Physiol. 273: R1283-90; Abran et al., 1997 Am. J. Physiol. 272: R995-1001). Since FP receptor densities in newborn vasculature are minimal due to down regulation by high levels of circulating prostaglandins in the perinatal period, the newborn pigs were treated with a prostaglandin synthetase blocker, ibuprofen (30 mg/Kg of bodyweight/ 8 h for 24 h) to increase the density of the receptors as well as their vasomotor effects. By inhibiting circulating prostaglandins; we were able to show potent inhibition of FP receptor-mediated second messenger synthesis as well as FP-mediated vascular constriction in this eyecup model.
# The preparations were allowed to stabilize for 30 min.
# Vascular diameter was recorded before and 10 min following the topical application of the agent.
# Small letters indicate L-amino acids and capital letters indicate D- amino acids. I = isoleucine; L= leucine; G =glycine; H=histidine, R=Arginine; D=Aspartic acid; Y=Tyrosine; […]; A-Alanine; W= Tryptophan; E-Glutamic acid; F= Phenyl alanine; Q=Glutamine; N=Aspargine; P=Proline; S=Serine; X=Cyclohexyl alanine.
sequence,measurement,setting,value
"ILGHKDYK [PCP-13.13, R to K variant of PCP-13]",%Vasomotor response (of constriction),"100 µM peptide added 30 min before 10^-7 M PGF2α, relative to maximal constriction in the absence of peptide",36.9%
same,% inhibition of maximal max. response,"100 µM peptide, 10^-7 M PGF2α, calculated as 100 - per cent vasomotor response",63.1%
same,change of inhibitory activity relative to the parent peptide (in words),"peptides at 100 µM, compared with PCP-13 (PCP-13 and PCP-11 with PCP-8, PCP-12 with PCP-10)",affected the activity of PCP-13 moderately
